Data as given in patent publication US9669005B2, “Use of naringenin in preparing drugs for preventing and/or treatment abdominal aortic aneurysm” (priority 2013, dated 2017).

Experiments:
Type in all cases: in vivo
[1] = test system: abdominal aortic aneurysms in C57BL/6J mice with CaPO4 daubed infrarenal arteries; experiment: Abdominal aortic aneurysm model induced by CaPO4 daubed infrarenal aortas, naringenin or doxycycline gavage; conditions: CaPO4 daubed C57BL/6 mice, daily gavage 7 days
Procedure: 12-week old of male C57BL/6 mice were anesthetized via intraperitoneal injection of 0.1% pentobarbital sodium (injection according to body weight, […]). Infrarenal abdominal aortas were separated, and the separated infrarenal abdominal aortas were packaged by gauze (1 cm in width×3 cm in length) soaked in 0.5 M CaCl2 solution. After 10 minutes, the gauze was removed, gauze soaked in PBS was instead used to package the blood vessel for 5 min. CaCl2+and PO4^−3 in PBS can form CaPO4 crystal, that is, corresponding to daubing CaPO4 to the blood vessel. After packaging the blood vessel with gauze soaked in NaCl for 10 minutes, gauze soaked in PBS is instead used for 5 min, serving as NaCl daubed control group.
Gavage was started at the first day after surgery, and water, naringenin (50 mg/kg) (Sigma-Aldrich, St. Louis, Mo.) or doxycycline (100 mg/kg) (Sigma-Aldrich, St. Louis, Mo.) gavage were given on mice daily. Materials were removed from the mice 7 days after gavage. Mice were weighed, and blood was drawn from inner canthus by capillary, after centrifuged for 10 minutes at 6000 rotations, the supernatant was removed and blood fat was measured (kit is purchased from BIOSINO company). Then perfusion and washing were performed on mice using PBS. Blood vessels were separated, and four blood vessels were randomly chosen for each group for photographing. The results were shown in FIG. 1, wherein, NaCl was the group of daubing NaCl (n=11), CaPO4 was the group of daubing CaPO4 plus water feed (n=12), CaPO4+NGN was the group of daubing CaPO4 μlus naringenin gavage (n=11), and CaPO4+Dox was the group of daubing CaPO4 μlus doxycycline gavage (n=11).
The blood vessels were sliced, and the change of the diameters in infrarenal abdominal aortas of mice were identified by H.E. staining. […] The data in FIG. 2A were an average value±standard deviation.
The fracture degree of elastic lamina is also an index showing the severity of abdominal aortic aneurysms. The degradation of elastic lamina is divided into four grades. The first grade means that the degradation of elastic lamina is less than 25%, with the second grade of 25%-50%, the third grade of 50%-75%, and the fourth grade means the fracture is more than 75%. We used Gomori staining to identify the fracture situation of elastic lamina of infrarenal abdominal aortas of mice. […] The data in FIG. 2B were an average value±standard deviation.

[2] = test system: macrophages and leukocytes in adventitia in vascular walls; experiment: Immunohistochemical staining of inflammatory cells (Mac3, CD45) in vascular walls, CaPO4 model; conditions: CaPO4 daubed mice, FIG. 3A
Excerpt: In the onset of abdominal aortic aneurysm, inflammatory cell infiltration of vascular walls is a common feature. We used histochemical staining to identify inflammatory cells infiltrated in vascular walls. Mac3 is the result of immumohistochemical staining on anti-Mac3 specific antibody, representative of macrophage, and CD45 is the result of immumohistochemical staining on anti-CD45 specific antibody, representative of leukocyte.

[3] = test system: IL-6, MCP-1, IL-10, TNF-α and IFN-γ in plasma; experiment: Inflammatory factors in plasma by flow kit, angiotensin II model; conditions: AngII ApoE-/- mice, naringenin gavage, FIG. 7B
Procedure: Eyeballs of mice were removed and blood was drawn, 20 μl of heparin was added into the blood, after centrifuged at 6000 rotations and 4[…] for 10 minutes, the supernatant was aspirated. 10 μl of supernatant was taken, and 10 μl of beads were added, and then 10 μl of PE was added, washed twice with lotion after incubating for 2 hours at room temperature, and then 200 μl of lotion is added. Sorting was performed in the manner of up-flowing after blending (wherein, the flow kits of inflammatory factors of mice were purchased from BD Company).

[4] = test system: formed arterial aneurysms in CaPO4 daubed C57 mice; experiment: Formed abdominal aortic aneurysms, CaPO4 model, naringenin gavage from 7 days after daubing
Procedure: In CaPO4 model, we daubed CaPO4 at infrarenal abdominal aortas in 12-week old of male C57 mice (totally 36 mice), and arterial aneurysms were formed 7 days later. Next, the 36 mice were randomly divided into 2 groups: one group was given naringenin (50 mg/kg/day) gavage, and another group was given equal water gavage. Gavage was performed for 2 weeks (8 mice for each group) and 4 weeks (10 mice for each group), respectively.

O=C1C[C@@H](c2ccc(O)cc2)Oc2cc(O)cc(O)c21 [naringenin]
fracture of elastic lamina of infrarenal abdominal aortas (Gomori staining) ([1]; FIG. 2B): reverse the effect of CaPO4
diameters of infrarenal abdominal aortas (H.E. staining) ([1]; naringenin 50 mg/kg, doxycycline 100 mg/kg, average ± SD, CaPO4 + water 1.40±0.19, NaCl 0.77±0.06): 1.03±0.18 mm
incidence rate and degree of bulge of blood vessels at infrarenal site ([1]; naringenin 50 mg/kg, doxycycline 100 mg/kg, vascular photos FIG. 1): reduce the incidence rate and degree of bulge
infiltration of macrophages and leukocytes in adventitia in vascular walls [2]: reduce such effect
IL-10 in plasma [3]: does not change significantly
TNF-α and IFN-γ in plasma [3]: do not change
levels of IL-6 and MCP-1 in plasma ([3]; n=11, P<0.05): significantly decrease
average diameter of infrarenal abdominal aortas (ex vivo) ([4]; aneurysms formed 7 days after CaPO4, naringenin 50 mg/kg/day gavage 2 weeks, control 1.488±0.42, P<0.05): 0.884±0.33 mm
average diameter of infrarenal abdominal aortas (ex vivo) ([4]; aneurysms formed 7 days after CaPO4, naringenin 50 mg/kg/day gavage 4 weeks, control 1.718±0.64, P<0.05): 0.9935±0.5 mm
